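Grown in 96-well plates, cells were treated for 48 hours with each compound at five concentrations. Insufficient inhibition: endpoint recorded as highest concentration tested. TGI marks complete inhibition of growth.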
What was measured:
Test in all cases: NCI tumour cell line growth inhibition, 48 h
OVCAR-3 ovarian = test system: OVCAR-3 ovarian
OVCAR-8 ovarian = test system: OVCAR-8 ovarian
DMS 114 small cell lung = test system: DMS 114 small cell lung
UACC-257 melanoma = test system: UACC-257 melanoma
SK-MEL-2 melanoma = test system: SK-MEL-2 melanoma
SF-539 CNS = test system: SF-539 CNS
CCRF-CEM leukemia = test system: CCRF-CEM leukemia
SNB-75 CNS = test system: SNB-75 CNS
A549 NSCLC = test system: A549 NSCLC
SK-MEL-28 melanoma = test system: SK-MEL-28 melanoma
RPMI-8226 leukemia = test system: RPMI-8226 leukemia
DLD-1 colon = test system: DLD-1 colon
HOP-18 NSCLC = test system: HOP-18 NSCLC
SN12C renal = test system: SN12C renal
SF-268 CNS = test system: SF-268 CNS
SNB-78 CNS = test system: SNB-78 CNS
UACC-62 melanoma = test system: UACC-62 melanoma
RXF 393 renal = test system: RXF 393 renal
LOX IMVI melanoma = test system: LOX IMVI melanoma
HCT-15 colon = test system: HCT-15 colon
M19-MEL melanoma = test system: M19-MEL melanoma
COLO 205 colon = test system: COLO 205 colon
KM20L2 colon = test system: KM20L2 colon
TK-10 renal = test system: TK-10 renal
HL-60(TB) leukemia = test system: HL-60(TB) leukemia
EKVX NSCLC = test system: EKVX NSCLC
M14 melanoma = test system: M14 melanoma
NCI-H522 lung = test system: NCI-H522 lung
MALME-3M melanoma = test system: MALME-3M melanoma
LXFL 529 NSCLC = test system: LXFL 529 NSCLC
ACHN renal = test system: ACHN renal
786-0 renal = test system: 786-0 renal
U251 CNS = test system: U251 CNS
HOP-92 NSCLC = test system: HOP-92 NSCLC
IGROV1 ovarian = test system: IGROV1 ovarian
A498 renal = test system: A498 renal
OVCAR-5 ovarian = test system: OVCAR-5 ovarian
MOLT-4 leukemia = test system: MOLT-4 leukemia
SK-OV-3 ovarian = test system: SK-OV-3 ovarian
OVCAR-4 ovarian = test system: OVCAR-4 ovarian
NCI-H226 lung = test system: NCI-H226 lung
DMS 273 small cell lung = test system: DMS 273 small cell lung
NCI-H23 lung = test system: NCI-H23 lung
UO-31 renal = test system: UO-31 renal
SNB-19 CNS = test system: SNB-19 CNS
K-562 leukemia = test system: K-562 leukemia
HT29 colon = test system: HT29 colon
SF-295 CNS = test system: SF-295 CNS
SW-620 colon = test system: SW-620 colon
HCT-116 colon = test system: HCT-116 colon
HOP-62 NSCLC = test system: HOP-62 NSCLC
NCI-H460 lung = test system: NCI-H460 lung
CAKI-1 renal = test system: CAKI-1 renal
SR leukemia = test system: SR leukemia
KM12 colon = test system: KM12 colon
XF 498 CNS = test system: XF 498 CNS
SK-MEL-5 melanoma = test system: SK-MEL-5 melanoma
HCC-2998 colon = test system: HCC-2998 colon

Measured: TGI

CCC1(CC)C(=O)NC(=O)NC1=S
> 100 µM: OVCAR-3 ovarian | OVCAR-8 ovarian | DMS 114 small cell lung | UACC-257 melanoma | SK-MEL-2 melanoma | SF-539 CNS | CCRF-CEM leukemia | SNB-75 CNS | A549 NSCLC | SK-MEL-28 melanoma | RPMI-8226 leukemia | DLD-1 colon | HOP-18 NSCLC | SN12C renal | SF-268 CNS | SNB-78 CNS | UACC-62 melanoma | RXF 393 renal | LOX IMVI melanoma | HCT-15 colon | M19-MEL melanoma | COLO 205 colon | KM20L2 colon | TK-10 renal | HL-60(TB) leukemia | EKVX NSCLC | M14 melanoma | NCI-H522 lung | MALME-3M melanoma | LXFL 529 NSCLC | ACHN renal | 786-0 renal | U251 CNS | HOP-92 NSCLC | IGROV1 ovarian | A498 renal | OVCAR-5 ovarian | MOLT-4 leukemia | SK-OV-3 ovarian | OVCAR-4 ovarian | NCI-H226 lung | DMS 273 small cell lung | NCI-H23 lung | UO-31 renal | SNB-19 CNS | K-562 leukemia | HT29 colon | SF-295 CNS | SW-620 colon | HCT-116 colon | HOP-62 NSCLC | NCI-H460 lung

COc1ccccc1/C=C1\C(=O)N(C(=O)Cc2ccccc2)N=C1C
> 100 µM: OVCAR-3 ovarian | OVCAR-8 ovarian | DMS 114 small cell lung | UACC-257 melanoma | SK-MEL-2 melanoma | SF-539 CNS | CCRF-CEM leukemia | SNB-75 CNS | A549 NSCLC | SK-MEL-28 melanoma | RPMI-8226 leukemia | DLD-1 colon | HOP-18 NSCLC | SN12C renal | SF-268 CNS | SNB-78 CNS | CAKI-1 renal | LOX IMVI melanoma | HCT-15 colon | M19-MEL melanoma | COLO 205 colon | TK-10 renal | HL-60(TB) leukemia | EKVX NSCLC | M14 melanoma | NCI-H522 lung | MALME-3M melanoma | SR leukemia | ACHN renal | 786-0 renal | U251 CNS | OVCAR-5 ovarian | MOLT-4 leukemia | OVCAR-4 ovarian | NCI-H226 lung | DMS 273 small cell lung | NCI-H23 lung | UO-31 renal | SNB-19 CNS | K-562 leukemia | HT29 colon | KM12 colon | SF-295 CNS | XF 498 CNS | SW-620 colon | HCT-116 colon | HOP-62 NSCLC | SK-MEL-5 melanoma | HCC-2998 colon | NCI-H460 lung

— PubChem BioAssay (NCI)
